According to article PMC7766697, “Toxicological Screening of Four Bioactive Citroflavonoids: In Vitro, In Vivo, and In Silico Approaches” (Molecules, 2020):
Where “and” joins values, the source holds several entries; their conditions need not be identical. Equal values may be shown once. Read-outs that look alike come from different tables or passages of the source.

Assays:
[1] = MTT-based cytotoxicity assay in VERO cells; assay type: cell-based, green Monkey; details: green monkey, MTT
Description: (§1) VERO and MDCK cell lines were acquired from American Type Culture Collection (ATCC, Manassas, VA, USA). […] In vitro cytotoxicity assay was performed on Madin-Darby Canine Kidney Epithelial Cells (MDCK) and green Monkey Kidney Cells (VERO) by MTT-based assay. Briefly, cells were seeded in 96-well plates at a density of 2.5 × 10^3 cells/well. […] The absorbance was measured after 45 min using a microplate reader (Multiskan Asent®) at a wavelength of 550 nm. The criteria for categorizing cytotoxicity against MDCK and VERO cells are based on the U.S. National Cancer Institute (NCI). The criteria comprise as follow: […] All results were expressed as mean ± standard error. The results from the in vivo and in vitro experiments were analyzed using software Origin® 8.0. […] The IC50 (half inhibitory concentration) values were calculated in Origin software®, (Northampton, MA, USA) and one-way ANOVA analysis was compared with cisplatin as the control.

VERO cells = test: MTT-based cytotoxicity assay in VERO cells; assay type: cell-based, green Monkey; details: 48 h, 125 to 750 µg/mL (QRT effect at 250–750 µg/mL)
Description: as §1

MDCK cells = test: MTT-based cytotoxicity assay in MDCK cells; assay type: cell-based, Canine; details: 48 h, 125 to 750 µg/mL (QRT effect at 250 and 500 µg/mL)
Description: as §1

Wistar rats [2] = assay type: in vivo
Description: Rats used for this experiment were fasted for 8 h and were organized into two groups of three rats for each dose and each flavonoid. Likewise, the control group received isotonic 0.9% sodium chloride solution (dose: 5 mL/kg). All rats were closely observed for toxic symptoms and behavioral changes (sedation, hyperactivity, writhing, pruritus, feeding and drinking habits, general morphological changes, and bite legs) for 30 min and periodically 24 h post-administration. Animals were observed daily (14 days) and mortality rate recorded. A LD50 was estimated according to criteria of OECD guide 423.
The rats’ body weight in each group was determined and recorded before the treatment initiation and after 14 days. Changes in the body weight at the end of the 14 days were calculated. Once observation time was completed and to detect any adverse effect, blood samples were collected by cardiac puncture after the previous fasting of 8 h. For this purpose, rats were anesthetized by intraperitoneally 50 mg/kg sodium pentobarbital. The liver was carefully extracted, rinsed in normal saline, drained on blotting paper, and carefully examined for tissue lesions. In addition, organ weight was determined.
Rat blood samples were analyzed by a hematology auto-analyzer system (Sysmex XS-1000i®, SYSMEX®, Oak Ridge, TN, USA). The parameters quantified on this stage were: blood count-packed cell volume (PCV), red blood cell (RBC) count, hemoglobin (Hb), platelet count, white blood cell (WBC) count, mean cell hemoglobin concentration (MCHC), mean red cell volume (MCV), mean cell hemoglobin (MCH), prothrombin time (PT), and activated partial thromboplastin time (aPTT).

Wistar rats [3] = details: rat, in vivo, po
Swiss-albino mice = details: cited from earlier work

O=c1c(O)c(-c2ccc(O)c(O)c2)oc2cc(O)cc(O)c12 [QRT, Quercetin]
IC50 at 48 h [1]: 465 µM and 141 µg/mL | IC50 at 48 h ([1]; abstract, first value of 'respectively'): 219 ± 7.22 µM | percentage viability / growth of cells (VERO cells): produced a decrease in the percentage viability | percentage viability / growth of cells (MDCK cells): caused significant differences in the rate of cell viability | MCV (Wistar rats [2]): 56.45 ± 3.05 fL | PT (Wistar rats [2]): 16.20 ± 2.00 s | Platelets (Wistar rats [2]): 759.00±22.00 105/µL | RBCDW (Wistar rats [2]): 17.95±0.45% | APTT (Wistar rats [2]; rat, in vivo, po, 50 mg/kg): 14.55 ± 0.25 s | Hb (Wistar rats [2]; rat, in vivo, po, 50 mg/kg): 14.55 ± 0.65 g/dL | Hto (Wistar rats [2]; rat, in vivo, po, 50 mg/kg): 45.50±2.30% | Leukocytes (Wistar rats [2]; rat, in vivo, po, 50 mg/kg): 3.65±0.60 103/µL | MCH (Wistar rats [2]; rat, in vivo, po, 50 mg/kg): 18.05 ± 0.85 pg | APTT (Wistar rats [2]; rat, in vivo, po, 300 mg/kg): 15.75 ± 1.45 s | Erythrocytes (Wistar rats [2]; rat, in vivo, po, 300 mg/kg): 8.12±0.32 106/µL | Hb (Wistar rats [2]; rat, in vivo, po, 300 mg/kg): 14.67 ± 0.45 g/dL | Hto (Wistar rats [2]; rat, in vivo, po, 300 mg/kg): 45.73±1.15% | Leukocytes (Wistar rats [2]; rat, in vivo, po, 300 mg/kg): 4.21±0.38 103/µL | MCH (Wistar rats [2]; rat, in vivo, po, 300 mg/kg): 18.07 ± 0.20 pg | MCV (Wistar rats [2]; rat, in vivo, po, 300 mg/kg): 56.37 ± 0.90 fL | PT (Wistar rats [2]; rat, in vivo, po, 300 mg/kg): 16.00 ± 2.65 s | Platelets (Wistar rats [2]; rat, in vivo, po, 300 mg/kg): 665.00±125.33 105/µL | RBCDW (Wistar rats [2]; rat, in vivo, po, 300 mg/kg): 16.80±0.20% | ALB (albumin) (Wistar rats [3]; 50 mg/kg): 3.88 ± 0.04 g/dL | ALB/GL Ratio (Wistar rats [3]; 50 mg/kg): 1.56 ± 0.087 | GL (globulin) (Wistar rats [3]; 50 mg/kg): 2.50 ± 0.14 g/dL | GLU (glucose) (Wistar rats [3]; 50 mg/kg): 119.67 ± 8.74 mg/dL | IB (indirect bilirubin) (Wistar rats [3]; 50 mg/kg): 0.036 ± 0.003 mg/dL | TB (total bilirubin) (Wistar rats [3]; 50 mg/kg): 0.08 ± 0.006 mg/dL | TP (total protein) (Wistar rats [3]; 50 mg/kg): 6.38 ± 0.15 g/dL | ALB (albumin) (Wistar rats [3]; 300 mg/kg): 3.63 ± 0.09 g/dL | ALB/GL Ratio (Wistar rats [3]; 300 mg/kg): 1.39 ± 0.15 | DB (direct bilirubin) (Wistar rats [3]; 300 mg/kg): 0.016 ± 0.004 mg/dL | GL (globulin) (Wistar rats [3]; 300 mg/kg): 2.84 ± 0.16 g/dL | GLU (glucose) (Wistar rats [3]; 300 mg/kg): 149.49 ± 5.00 mg/dL | IB (indirect bilirubin) (Wistar rats [3]; 300 mg/kg): 0.030 ± 0.006 mg/dL | TB (total bilirubin) (Wistar rats [3]; 300 mg/kg): 0.05 ± 0.003 mg/dL | TP (total protein) (Wistar rats [3]; 300 mg/kg): 6.48 ± 0.065 g/dL | alkaline phosphatase (ALP) (Swiss-albino mice; 128 or 450 mg/kg orally for 14 days): increased | AST (Swiss-albino mice; higher dose, orally for 14 days): declined | bilirubin (Swiss-albino mice; only at 128 mg/kg, orally for 14 days): also increased
